In patent US20190284168A1, “PYRAZOLE DERIVATIES AS SGC STIMULATORS” (IRONWOOD PHARMACEUTICALS, INC., priority 2014, published 2019):

Target: T1, soluble guanylate cyclase (sGC) (Homo sapiens, UniProt Q02108+Q02153)
T1 construct: endogenously expressing soluble guanylate cyclase (sGC); endogenous in cells; host or cells: HEK293
T1 sequence (Q02153 1-619): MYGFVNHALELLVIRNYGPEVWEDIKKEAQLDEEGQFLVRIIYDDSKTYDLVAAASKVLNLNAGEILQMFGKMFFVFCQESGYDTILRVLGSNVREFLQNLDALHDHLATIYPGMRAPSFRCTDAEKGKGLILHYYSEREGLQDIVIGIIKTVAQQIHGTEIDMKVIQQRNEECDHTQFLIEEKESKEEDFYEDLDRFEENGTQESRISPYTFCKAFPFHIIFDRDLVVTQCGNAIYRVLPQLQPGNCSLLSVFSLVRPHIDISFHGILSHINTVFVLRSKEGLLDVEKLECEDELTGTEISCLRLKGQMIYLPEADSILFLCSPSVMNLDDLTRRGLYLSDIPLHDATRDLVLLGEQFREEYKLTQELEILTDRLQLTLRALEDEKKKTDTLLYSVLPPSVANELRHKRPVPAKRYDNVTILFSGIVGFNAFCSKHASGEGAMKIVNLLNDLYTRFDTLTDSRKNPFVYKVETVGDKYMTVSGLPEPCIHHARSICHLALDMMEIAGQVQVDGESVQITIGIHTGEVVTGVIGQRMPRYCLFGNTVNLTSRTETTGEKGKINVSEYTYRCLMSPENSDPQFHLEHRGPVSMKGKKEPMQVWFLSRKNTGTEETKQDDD
T1 sequence (Q02108 1-690): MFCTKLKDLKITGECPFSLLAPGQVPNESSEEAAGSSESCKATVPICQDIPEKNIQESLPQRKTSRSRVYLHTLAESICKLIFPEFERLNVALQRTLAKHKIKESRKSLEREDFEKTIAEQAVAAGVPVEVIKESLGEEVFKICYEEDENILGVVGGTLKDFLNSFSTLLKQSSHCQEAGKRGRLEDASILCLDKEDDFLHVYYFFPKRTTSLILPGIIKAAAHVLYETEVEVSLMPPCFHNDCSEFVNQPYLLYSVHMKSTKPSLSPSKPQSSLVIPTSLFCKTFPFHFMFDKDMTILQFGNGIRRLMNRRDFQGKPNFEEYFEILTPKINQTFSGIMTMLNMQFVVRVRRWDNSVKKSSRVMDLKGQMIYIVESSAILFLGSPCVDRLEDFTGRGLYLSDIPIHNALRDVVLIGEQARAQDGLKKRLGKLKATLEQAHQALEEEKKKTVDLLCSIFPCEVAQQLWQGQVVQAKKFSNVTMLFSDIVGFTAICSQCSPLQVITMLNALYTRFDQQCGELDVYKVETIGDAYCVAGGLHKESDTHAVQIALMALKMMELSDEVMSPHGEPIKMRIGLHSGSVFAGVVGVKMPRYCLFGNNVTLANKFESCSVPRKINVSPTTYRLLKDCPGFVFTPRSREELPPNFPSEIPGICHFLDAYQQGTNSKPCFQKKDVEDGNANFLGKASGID
Assay: sGC-HEK-cGMP assay with LC/MS detection
Format: cell-based
Conditions: HEK293 whole cells, LC/MS detection of cGMP, 10 μM DETA-NONOate; 50% of high control response (30 μM Compound Y); read-out: Absolute EC50 (nM)- binned (~)

EC50	SMILES
< 100 nM	NC(=O)C1CCN(c2nc(-c3cc(-c4ccon4)n(Cc4ccccc4F)n3)ncc2F)CC1 [Compound 60]
100 to 1000 nM	NC(=O)C(O)(CNc1nc(-n2cc(-c3ccon3)c(Cc3ccccc3F)n2)ncc1F)C(F)(F)F (centres unmarked) [Compound 30]
> 1000 nM	CC(C)(NC(=O)OCc1ccccc1)C(=O)Nc1ccnc(-c2cc(-c3ccon3)n(Cc3ccccc3F)n2)n1 [Compound 5]
100 to 1000 nM	OCCNc1cnc(-c2cc(-c3ccon3)n(Cc3ccccc3F)n2)nc1 [Compound 8]
< 100 nM	O=C(OCCNc1nc(-c2cc(-c3ccon3)n(Cc3ccccc3F)n2)ncc1F)c1ccccn1 [Compound 206]
< 100 nM	Cc1nnc(C(O)(CNc2nc(-c3cc(-c4ccon4)n(Cc4ccccc4F)n3)ncc2F)C(F)(F)F)o1 (centres unmarked) [Compound 52]
< 100 nM	NC(=O)c1nnc2n1CCN(c1nc(-c3cc(-c4ccon4)n(Cc4ccccc4F)n3)ncc1F)C2 [Compound 54]
100 to 1000 nM	CC(=O)c1cc(-c2ncc(F)c(NCCS(N)(=O)=O)n2)nn1Cc1ccccc1F [Compound 76]
> 1000 nM	C=CCN(C)c1nc(-c2cc(-c3ccon3)n(Cc3ccccc3F)n2)ncc1F [Compound 166, N-allyl-5-fluoro-2-(1-(2-fluorobenzyl)-5-(isoxazol-3-yl)-1H-pyrazol-3-yl)-N-methylpyrimidin-4-amine]
< 100 nM	O=C(NC1CC1)C(O)(CNc1nc(-c2cc(-c3ccon3)n(Cc3ccccc3F)n2)ncc1F)C(F)(F)F (centres unmarked) [Compound 65]
> 30000 nM	COc1nn(-c2nc(-c3cc(-c4ccon4)n(Cc4ccccc4F)n3)ncc2F)cc1CC(N)=O [Compound 57]
< 100 nM	C[C@@](N)(CNc1nc(-c2cc(-c3ccon3)n(Cc3ccccc3F)n2)ncc1F)C(F)(F)F [Compound 106]
> 1000 nM	CC(=O)c1cc(-c2ncc(F)c(N3CC4(COC4)C3)n2)nn1Cc1ccccc1F [Compound 118]
100 to 1000 nM	CC(=O)c1cc(-c2ncc(F)c(N3CCCC(F)(F)C3)n2)nn1Cc1ccccc1F [Compound 79]
100 to 1000 nM	CC(=O)c1cc(-c2ncc(F)c(N3CCC(C(=O)O)(C(C)C)CC3)n2)nn1Cc1ccccc1F [Compound 179]
> 1000 nM	CCOC(=O)C(C)(C)c1nnc(-c2cc(-c3ccon3)n(Cc3ccccc3F)n2)nc1OC [Compound 61]
> 1000 nM	NC(=O)CNc1cnc(-c2cc(-c3ccon3)n(Cc3ccccc3F)n2)nc1 [Compound 6]
> 1000 nM	NC(=O)[C@](O)(CNc1nc(-c2cc(-c3ccon3)n(Cc3ccc(O)cc3F)n2)ncc1F)C(F)(F)F [Compound 195]
< 100 nM	CC(C)OC(=O)CCNc1nc(-c2cc(-c3ccon3)n(Cc3ccccc3F)n2)ncc1F [Compound 164, isopropyl 3-((5-fluoro-2-(1-(2-fluorobenzyl)-5-(isoxazol-3-yl)-1H-pyrazol-3-yl)pyrimidin-4-yl)amino)propanoate]
100 to 1000 nM	CCC(C)(N)C(=O)Nc1ccnc(-c2cc(-c3ccon3)n(Cc3ccccc3F)n2)n1 (centres unmarked) [Compound 47]
> 1000 nM	CC(C)(N)C(=O)Nc1ccnc(-c2cc(-c3ccon3)n(Cc3ccccc3F)n2)n1 [Compound 33]
> 1000 nM	Nc1nc(-c2cc(-c3ccon3)n(Cc3ccccc3F)n2)ncc1NCCO [Compound 10]
> 1000 nM	NC(=O)Cc1c[nH]n(-c2nc(-c3cc(-c4ccon4)n(Cc4ccccc4F)n3)ncc2F)c1=O [Compound 40]
100 to 1000 nM	CC(N)(CNc1nc(-c2cc(-c3ccon3)n(Cc3ccccc3F)n2)ncc1F)C1CC1 (centres unmarked) [Compound 67]
100 to 1000 nM	NC1(CNc2nc(-c3cc(-c4ccon4)n(Cc4ccccc4F)n3)ncc2F)CC1 [Compound 68]

EC50	SMILES
> 1000 nM	CCCS(=O)(=O)Nc1nc(-c2cc(C(C)=O)n(Cc3ccccc3F)n2)ncc1F [Compound 97]
100 to 1000 nM	CS(=O)(=O)Nc1ccc(CNc2nc(-c3cc(-c4ccon4)n(Cc4ccccc4F)n3)ncc2F)cc1O [Compound 161, N-(4-(((5-fluoro-2-(1-(2-fluorobenzyl)-5-(isoxazol-3-yl)-1H-pyrazol-3-yl)pyrimidin-4-yl)amino)methyl)-2-hydroxyphenyl)methanesulfonamide]
100 to 1000 nM	O=S(=O)(Nc1ccc(CNc2nc(-c3cc(-c4ccon4)n(Cc4ccccc4F)n3)ncc2F)cc1O)C1CC1 [Compound 160, N-(4-(((5-fluoro-2-(1-(2-fluorobenzyl)-5-(isoxazol-3-yl)-1H-pyrazol-3-yl)pyrimidin-4-yl)amino)methyl)-2-hydroxyphenyl)cyclopropanesulfonamide]
> 1000 nM	CC(=O)c1cc(-c2ncc(F)c(N3CCS(=O)(=O)C(C)(C)C3)n2)nn1Cc1ccccc1F [Compound 115]
< 100 nM	CSCC[C@H](CO)Nc1nc(-c2cc(-c3ccon3)n(Cc3ccccc3F)n2)ncc1F [Compound 150, (R)-2-((5-fluoro-2-(1-(2-fluorobenzyl)-5-(isoxazol-3-yl)-1H-pyrazol-3-yl)pyrimidin-4-yl)amino)-4-(methylthio)butan-1-ol]
100 to 1000 nM	CC(=O)c1cc(-c2ncc(F)c(NCc3cc(=O)[nH]o3)n2)nn1Cc1ccccc1F [Compound 70]
100 to 1000 nM	CC(=O)c1cc(-c2ncc(F)c(N3CCC4(CC3)COC4)n2)nn1Cc1ccccc1F [Compound 113]
> 1000 nM	CC(=O)c1cc(-c2ncc(F)c(N3CCNCC3)n2)nn1Cc1ccccc1F [Compound 94]
> 1000 nM	CC(=O)c1cc(-c2ncc(F)c(N3CCCS3(=O)=O)n2)nn1Cc1ccccc1F [Compound 119]
< 100 nM	CC(=O)c1cc(-c2ncc(F)c(N(C)CC3(C(=O)O)CCCC3)n2)nn1Cc1ccccc1F [Compound 90]
100 to 1000 nM	CS(=O)(=O)NCCNc1cnc(-c2cc(-c3ccon3)n(Cc3ccccc3F)n2)nc1 [Compound 24]
> 1000 nM	CC(=O)c1cc(-c2ncc(F)c(N3CC(NC(=O)C4(O)CC4)C3)n2)nn1Cc1ccccc1F [Compound 122]
100 to 1000 nM	CC(C)(C(N)=O)C(=O)Nc1ccnc(-c2cc(-c3ccon3)n(Cc3ccccc3F)n2)n1 [Compound 51]
< 100 nM	OC(CNc1nc(-c2cc(-c3ccon3)n(Cc3ccccc3F)n2)ncc1F)(c1nnc(C2CC2)o1)C(F)(F)F (centres unmarked) [Compound 69, 2-(5-cyclopropyl-1,3,4-oxadiazol-2-yl)-1,1,1-trifluoro-3-((5-fluoro-2-(1-(2-fluorobenzyl)-5-(isoxazol-3-yl)-1H-pyrazol-3-yl)pyrimidin-4-yl)amino)propan-2-ol]
100 to 1000 nM	CC(=O)c1cc(-c2ncc(F)c(N3CCC4(CCOCC4)C3)n2)nn1Cc1ccccc1F [Compound 112]
100 to 1000 nM	NCC(=O)OCCNc1nc(-c2cc(-c3ccon3)n(Cc3ccccc3F)n2)ncc1F [Compound 199]
100 to 1000 nM	CC(=O)c1cc(-c2ncc(F)c(N3CC[C@H](O)[C@H](O)C3)n2)nn1Cc1ccccc1F [Compound 116]
> 1000 nM	CC(=O)c1cc(-c2ncc(F)c(N)n2)nn1Cc1ccccc1F [Compound 84]
> 30000 nM	COCc1cc(-c2ncc(F)c(O)n2)nn1Cc1ccccc1F [Compound 105]
100 to 1000 nM	CC(C)CC(C)(N)CNc1nc(-c2cc(-c3ccon3)n(Cc3ccccc3F)n2)ncc1F (centres unmarked) [Compound 156, N1-(5-fluoro-2-(1-(2-fluorobenzyl)-5-(isoxazol-3-yl)-1H-pyrazol-3-yl)pyrimidin-4-yl)-2,4-dimethylpentane-1,2-diamine]
> 1000 nM	CC(C)(C(=O)O)C(=O)Nc1ccnc(-c2cc(-c3ccon3)n(Cc3ccccc3F)n2)n1 [Compound 49]
> 1000 nM	CS(=O)(=O)CCNc1cnc(-c2cc(-c3ccon3)n(Cc3ccccc3F)n2)nc1 [Compound 22]
100 to 1000 nM	CC(=O)c1cc(-c2ncc(F)c(NC[C@@H](C(=O)O)C(C)C)n2)nn1Cc1ccccc1F [Compound 72]
> 1000 nM	NC(=O)Cc1cn(-c2nc(-c3cc(-c4ccon4)n(Cc4ccccc4F)n3)ncc2F)[nH]c1=O [Compound 41]

SMILES	EC50
OC(CNc1nc(-n2cc(-c3ccon3)c(Cc3ccccc3F)n2)ncc1F)(C(F)(F)F)C(F)(F)F [Compound 26]	100 to 1000 nM
